≈ marks a conversion by molar mass, not a printed value.
What was measured:
Renca tumor cells = assay: Subcutaneous kidney cancer syngenic model (Renca); format: in vivo, BALB/c mice; parameters: concentration or dose not given beside the values
From the text: The objective of this study was to evaluate preclinically the in vivo therapeutic efficacy study of compounds according to the present invention for the treatment of subcutaneously murine pancreatic cancer syngenic model (Pan02) in female C57BL/6 mice and kidney cancer syngenic model (Renca) in female BALB/c mice.
The cells in exponential growth phase were harvested and quantitated by cell counter before tumor inoculation.
Tumor Inoculation for Renca model: each mouse was inoculated subcutaneously in the right rear flank region with Renca tumor cells (1×10^6) in 0.1 mL of PBS for tumor development.
Randomization: The randomization was started when the mean tumor size reaches approximately 100 (80-110) mm^3. For both models, 48 mice were enrolled in the study. All animals were randomly allocated to 6 study groups. Randomization were performed based on “Matched distribution” method using the multi-task method (StudyDirector™ software, version 3.1.399.19). The date of randomization was denoted as day 0.
Observation and Data Collection: After tumor cells inoculation, the animals were checked daily for morbidity and mortality. During routine monitoring, the animals were checked for any effects of tumor growth and treatments on behavior such as mobility, food and water consumption, body weight gain/loss (body weights were measured twice per week after randomization), eye/hair matting and any other abnormalities. Mortality and observed clinical signs were recorded for individual animals in detail.
Tumor volumes were measured twice per week after randomization in two dimensions using a caliper, and the volume were expressed in mm3 using the formula: “V=(L×W×W)/2, where V is tumor volume, L is tumor length (the longest tumor dimension) and W is tumor width (the longest tumor dimension perpendicular to L). Tumor weight were measured at the end of study. Dosing as well as tumor and body weight measurements were conducted in a Laminar Flow Cabinet.
Statistical Analysis: To compare tumor volumes of different groups at a pre-specified day, Bartlett's test was firstly used to check the assumption of homogeneity of variance across all groups. When the p-value of Bartlett's test is >0.05, One-way ANOVA were used to test overall equality of means across all groups.
If the p-value of the One-way ANOVA is <0.05, post hoc testing by running Tukey's HSD (honest significant difference) tests for all pairwise comparisons, and Dunnett's tests for comparing each treatment group with the vehicle group were performed. When the p-value of Bartlett's test is <0.05, Kruskal-Wallis test were used to test overall equality of medians among all groups. If the p-value the Kruskal-Wallis test is <0.05, post hoc testing by running Conover's non-parametric test for all pairwise comparisons or for comparing each treatment group with the vehicle group were performed, both with single-step p-value adjustment. All statistical analyses were done in R-a language and environment for statistical computing and graphics (version 3.3.1). All tests are two-sided unless otherwise specified, and p-values of <0.05 are regarded as statistically significant.

[1] = test system: thioglycolate-induced peritonitis; assay: Thioglycolate-induced peritonitis murine model; format: in vivo, C57BL/6J mice; conditions: 50 mg/kg i.p. 1 h prior to thioglycolate
Method: Therapeutic efficacy of the compounds of the present invention was assessed using thioglycolate-induced peritonitis murine models as described by Cook A D et al. (J Immunol. 2003; 171(9):4816-4823) and Tsai J M et al. (Blood Adv. 2019; 3(18):2713-2721. doi: 10.1182/bloodadvances.2018024026).
C57BL/6J mice were injected intraperitoneally (i.p.) with 1 mL of compounds at 50 mg/kg 1 h prior to the induction of peritonitis. Peritonitis was then induced with 1 ml of sterile thioglycolate broth 4% (wt/vol) or PBS as control. After 3 h, mice were anesthetized by i.p. injection with a solution of PBS containing 5 mg/ml ketamine and 1 mg/ml xylazine and peritoneal cavities were washed with 5 ml ice-cold sterile Ca2+/Mg2+-free HBSS 1×containing EDTA 2 mM. Peritoneal exudate cells (PECs) were centrifuged at 1200 rpm for 5 min at 4° C. and red cells lysed. PECs were washed, resuspended in PBS 10% FBS, incubated with anti-CD16/CD32 and mIgG FcR blockers and then stained with fluorescently conjugated antibodies to characterize migrated leukocytes (anti-CD45, anti-CD11b, anti-Ly6G, anti-CD8a, anti-CD4, anti-CD3). Cell viability was measured by 7-AAD exclusion. Specimens were acquired by flow cytometry using MACSQuant Analyzer (Miltenyi Biotec) and analysed using FlowJo software.
Animals: four C57BL/6J mice per group for each compound versus four vehicle treated mice.
Read out was done 1 h after thioglycolate injection.
Readout method: flow cytometry to characterise migrated leukocytes using anti-CD45, anti-CD11b, anti-Ly6G, anti-CD8a, anti-CD4, anti-CD3.
Results and statistical analysis: Results were analysed using FlowJo software. Data were shown as mean±SEM. Two-tailed Student's t test using a significance level of 0.05 is used for the statistical analysis.

COX2 (cycloxygenase-2) = target: T1, COX2 (cycloxygenase-2) (Homo sapiens, UniProt P35354); assay: Cyclooxygenase enzyme inhibition; format: biochemical
T1 sequence (P35354 18-604): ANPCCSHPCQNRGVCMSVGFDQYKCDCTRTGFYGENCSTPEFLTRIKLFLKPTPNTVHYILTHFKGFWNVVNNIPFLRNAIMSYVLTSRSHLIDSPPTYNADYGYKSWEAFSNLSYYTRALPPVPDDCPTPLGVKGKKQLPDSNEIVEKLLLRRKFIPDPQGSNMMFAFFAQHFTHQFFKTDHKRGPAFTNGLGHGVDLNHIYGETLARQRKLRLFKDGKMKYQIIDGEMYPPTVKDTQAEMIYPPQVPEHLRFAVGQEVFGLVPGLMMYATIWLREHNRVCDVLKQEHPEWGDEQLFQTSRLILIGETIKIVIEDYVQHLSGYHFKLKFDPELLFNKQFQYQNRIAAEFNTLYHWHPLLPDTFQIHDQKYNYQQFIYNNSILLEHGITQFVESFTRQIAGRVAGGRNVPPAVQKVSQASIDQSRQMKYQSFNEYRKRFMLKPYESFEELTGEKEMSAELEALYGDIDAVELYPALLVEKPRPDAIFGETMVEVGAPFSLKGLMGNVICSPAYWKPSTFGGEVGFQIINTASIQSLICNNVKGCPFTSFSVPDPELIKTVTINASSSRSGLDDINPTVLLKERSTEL

physchem = conditions: water

| SMILES | Mean % inhibition of tumor volume Renca model (Renca tumor cells; Day 0) [%] | Mean % inhibition of tumor volume Renca model (Renca tumor cells; Day 3) [%] | Mean % inhibition of tumor volume Renca model (Renca tumor cells; Day 6) [%] | Mean % inhibition of tumor volume Renca model (Renca tumor cells; Day 9) [%] | Mean % inhibition of tumor volume Renca model (Renca tumor cells; Day 13) [%] | Mean % inhibition of tumor volume Renca model (Renca tumor cells; Day 16) [%] | % of reduction, CD4+ lymphocytes, treated over vehicle treated mice [1] [%] | % of reduction, CD8+ lymphocytes, treated over vehicle treated mice [1] [%] | % of reduction, Leukocytes (CD45+ cells), treated over vehicle treated mice [1] [%] | % of reduction, PMNs (CD11b-Ly6G double + cells), treated over vehicle treated mice [1] [%] | Inhibition of COX2 (COX2 (cycloxygenase-2)) | Cell counts, CD4+ lymphocytes, treated mice ([1]; peritoneal exudate cells) | Cell counts, CD8+ lymphocytes, treated mice ([1]; peritoneal exudate cells) | Cell counts, Leukocytes (CD45+ cells), treated mice ([1]; peritoneal exudate cells) | Cell counts, PMNs (CD11b-Ly6G double + cells), treated mice ([1]; peritoneal exudate cells) | solubility (physchem) [µg/mL] |
| --- | --- | --- | --- | --- | --- | --- | --- | --- | --- | --- | --- | --- | --- | --- | --- | --- |
| O=C(O)c1cc(O)cc(CS(=O)(=O)Cc2cc(O)cc(C(=O)O)c2O)c1O [IVc-059a, 3-((2,5-Dihydroxy-3-carboxyphenyl)methylsulfonylmethyl)-2,5-dihydroxybenzoic acid] | 0.05 | −0.90 | 5.02 | 14.83 | 23.07 | 19.42 | 6.0 | 23.0 | 4.0 | −13.0 | partially inhibition | – | – | – | – | – |
| O=C(O)c1cc(NC(=O)c2cc(O)c(C(=O)Nc3ccc(O)c(C(=O)O)c3)cc2O)ccc1O [Ic-007a, 5-(4-(3-carboxy-4-hydroxyphenylaminocarbonyl)-2,5-dihydroxybenzamido)-2-hydroxy benzoic acid] | – | – | – | – | – | – | 35 | 71 | 48 | 80 | partially inhibition | 1.03 × 10^4 | 0.54 × 10^4 | 31.3 × 10^4 | 2.03 × 10^4 | – |
| O=C(O)c1cc(NC(=O)c2cc(O)cc(C(=O)Nc3ccc(O)c(C(=O)O)c3)c2O)ccc1O [IIc-007a, 5-(3-(3-carboxy-4-hydroxyphenylaminocarbonyl)-2,5-dihydroxybenzamido)-2-hydroxy benzoic acid] | – | – | – | – | – | – | 40.0 | 20.0 | 11.8 | 27.3 | partially inhibition | – | – | – | – | 1800 (≈ 3.84 mM) |
| O=C(O)c1cc(O)c(CN(Cc2cc(O)c(C(=O)O)cc2O)Cc2cc(O)c(C(=O)O)cc2O)cc1O [IIIc-061a, Tris(4-carboxy-2,5-dihydroxyphenylmethyl)amine] | – | – | – | – | – | – | 42.9 | 33.3 | −2.4 | −8.3 | partially inhibition | – | – | – | – | – |

— US20230150951A1, “2,5- OR 2,6-DISUBSTITUTED HYDROQUINONE DERIVATIVES WITH AT LEAST ONE CARBOXY, SULFO OR AMIDO GROUP USEFUL AS MEDICAMENTS” (OM PHARMA SA, priority 2020, published 2023)
